Among the data in ChEMBL document CHEMBL1155972, “From natural products to achiral drug prototypes: potent thrombin inhibitors based on P2/P3 dihydropyrid-2-one core motifs” (Bioorg Med Chem Lett, 2009) are IC50 and pKa values, retold here.

The target of one series is Prothrombin (Homo sapiens, UniProt P00734). Kind of series: Inhibition of human thrombin.
The nature of series [1]: Inhibition of bovine trypsin. The arrangement: species or system Bos taurus.
The nature of series [2]: Dissociation constant, pKa of the compound. It counts as physicochemical.

`CC1=C(CC(=O)NCc2ccc(C(=N)N)cc2)C(=O)N(NS(=O)(=O)c2ccccc2)CC1`: the IC50 (as a rule, the midpoint of a concentration-inhibition curve) is 42 nM against Prothrombin and 766 nM in series [1].

For the compound `COc1cccc(S(=O)(=O)NN2CCC(C)=C(CC(=O)NCc3ccc(C(=N)N)cc3)C2=O)c1`, the IC50 on Prothrombin amounted to 11 nM; in series [1] it was 860 nM. Besides, the pKa (commonly the negative logarithm of the acid dissociation constant) in series [2] was found to be 8.8.

In the case of `Cc1ccn(NS(=O)(=O)c2cccc3ccccc23)c(=O)c1CC(=O)NCc1ccc(C(=N)N)cc1`, the concentration for half-maximal inhibition (IC50) amounted to 17100 nM against Prothrombin and 5.8 nM in series [1].

Take `CC1=C(CC(=O)NCc2ccc(C(=N)N)cc2)C(=O)N(NS(=O)(=O)c2cc(Cl)ccc2Cl)CC1`: the IC50 turned out to be 10 nM against Prothrombin and 1250 nM in series [1].

`CC[C@@H](C)[C@@H](NC(=O)[C@H](O)Cc1ccccc1)C(=O)N1[C@H](C(=O)NCc2ccc(C(=N)N)cc2)C[C@@H]2CCCC[C@@H]21` displayed a concentration for half-maximal inhibition (IC50) against Prothrombin of 3.3 nM.

`COc1cccc(S(=O)(=O)Nn2ccc(C)c(CC(=O)NCc3ccc(C(=N)N)cc3)c2=O)c1`: in series [1], the IC50 worked out at 15600 nM.

The compound `Cc1ccn(NS(=O)(=O)c2ccccc2)c(=O)c1CC(=O)NCc1ccc(C(=N)N)cc1` registered an IC50 in series [1] of 5770 nM. The pKa in series [2] amounted to 5.9.

In turn, `Cc1ccc(C)c(S(=O)(=O)Nn2ccc(C)c(CC(=O)NCc3ccc(C(=N)N)cc3)c2=O)c1` had an IC50 in series [1] of 7130 nM. This counts as single-digit micromolar.

Regarding `Cc1ccn(NS(=O)(=O)Cc2ccccc2)c(=O)c1CC(=O)NCc1ccc(C(=N)N)cc1`, the IC50 on Prothrombin came out at 3960 nM; in series [1] it was 14900 nM.

`N=C(N)c1ccc(CNC(=O)[C@@H]2C[C@@H]3CCCC[C@@H]3N2C(=O)[C@H](NC(=O)[C@H](O)Cc2ccccc2)C(C2CCCCC2)C2CCCCC2)cc1` showed an IC50 on Prothrombin of 3.4 nM.

In the case of `COc1cc(C)ccc1S(=O)(=O)NN1CCC(C)=C(CC(=O)NCc2ccc(C(=N)N)cc2)C1=O`, the IC50 at Prothrombin was found to be 44 nM; in series [1], 117 nM.

For `CC(C)[C@@H](Cl)[C@@H](NC(=O)[C@H](O)Cc1ccccc1)C(=O)N1[C@H](C(=O)NCc2ccc(C(=N)N)cc2)C[C@@H]2CCCC[C@@H]21`, at Prothrombin, the IC50 was found to be 1.6 nM.

On to `CC1=C(CC(=O)NCc2ccc(C(=N)N)cc2)C(=O)N(NS(=O)(=O)c2ccc(Cl)cc2F)CC1`, for which the half-inhibitory concentration (IC50) turned out to be 106 nM against Prothrombin and 683 nM in series [1].

For `CC1=C(CC(=O)NCc2ccc(C(=N)N)cc2)C(=O)N(NS(=O)(=O)c2cc(C)ccc2C)CC1`, the IC50 on Prothrombin was 6 nM; in series [1], 374 nM. This compound registered a pKa in series [2] of 8.7.

In the case of `COc1cc(C)ccc1S(=O)(=O)Nn1ccc(C)c(CC(=O)NCc2ccc(C(=N)N)cc2)c1=O`, the half-inhibitory concentration (IC50) in series [1] was 2020 nM. Further, the pKa in series [2] is 6.7.

Consider `CC1=C(CC(=O)NCc2ccc(C(=N)N)cc2)C(=O)N(NS(=O)(=O)c2cccc3ccccc23)CC1`, for which the IC50 turned out to be 915 nM at Prothrombin and 8.2 nM in series [1].

With `CC1=C(CC(=O)NCc2ccc(C(=N)N)cc2)C(=O)N(NS(=O)(=O)c2c(C)cccc2Cl)CC1`, the IC50 at Prothrombin was determined as 3 nM; in series [1], 286 nM.

Compound `CO[C@H](COS(=O)(=O)[O-])C(=O)N[C@@H](C(=O)N1[C@H](C(=O)NCCC2=CC[N+](=C(N)N)C2)C[C@@H]2C[C@H](O)[C@@H](O)C[C@@H]21)[C@H](Cl)C(C)C` [CHLORODYSINOSIN A] came in with an IC50 against Prothrombin of 5.8 nM.

On Prothrombin, `CO[C@H](COS(=O)(=O)[O-])C(=O)N[C@H](CC(C)C)C(=O)N1[C@H](C(=O)NCCC2=CC[N+](=C(N)N)C2)C[C@@H]2C[C@H](O)[C@@H](O)C[C@@H]21` [DYSINOSIN A] registered an IC50 of 46 nM. This IC50 lies about 7.9-fold higher than the previous one.
